Measured values reported in patent US7138242B2, “Olfactory receptor expression libraries and methods of making and using them” (Johns Hopkins University, priority 1998, dated 2006).
Substitutions are numbered along the chain they refer to.

Tests used:
[1] = target: T1, full-length rat I7 olfactory receptor fused to rhodopsin N-terminus (Rattus norvegicus, UniProt P23270); assay: Ca2+ imaging, HEK-293 cells expressing translocation domain (rhodopsin N-terminus) fused to full-length rat I7; assay type: cell-based
T1 construct: expressed in transfected cells; host or cells: HEK-293 with Gα15,16
T1 sequence (P23270 1-327): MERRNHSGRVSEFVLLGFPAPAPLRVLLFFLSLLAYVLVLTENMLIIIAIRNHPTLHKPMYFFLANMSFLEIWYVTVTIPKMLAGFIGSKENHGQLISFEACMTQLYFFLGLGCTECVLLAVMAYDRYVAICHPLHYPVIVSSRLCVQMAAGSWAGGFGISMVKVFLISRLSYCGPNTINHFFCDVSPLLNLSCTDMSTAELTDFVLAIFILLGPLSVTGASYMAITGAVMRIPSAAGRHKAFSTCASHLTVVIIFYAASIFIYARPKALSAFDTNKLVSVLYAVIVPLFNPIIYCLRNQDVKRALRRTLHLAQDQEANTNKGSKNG

[2] = target: T2, full-length rat I7 receptor, residue 206 valine/isoleucine substitution (Rattus norvegicus, UniProt P23270, V206I); assay: Ca2+ imaging, full-length rat I7 receptor with valine/isoleucine substitution at residue 206; assay type: cell-based; details: heptanal vs octanal
T2 construct: expressed in transfected cells; not repeated
T2 sequence (P23270 1-327 V206I): T1 sequence (P23270 1-327) with V206I

[3] = system: Rho/M4NC-β2 TM II–VII (TM II–VII region from the β2-adrenergic receptor in pCMV-Rho/M4NC); assay: Single-cell FURA-2 Ca2+ imaging, HEK-293 cells co-transfected with Rho/M4NC-β2 TM II–VII and Gα15,16; assay type: cell-based, human; details: bath application; cells co-transfected with Gα15,16
Experimental: HEK-293 cells (obtained from the ATCC) were grown in DMEM supplemented with 10% fetal bovine serum, penicillin (100 U/ml), streptomycin (100 μg/ml) and L-glutamine (2 mM) in 5% CO2. […] After 5 to 7 hr incubation, the cells were washed once with PBS containing 0.5 mM EDTA and 10% DMSO, then with PBS before continuing growth in regular media for 40–50 hr.
Efficient screening of expressed olfactory receptors with a large number of ligands by functional analysis requires a robust and sensitive assay system. […] In this reporter system, (olfactory) receptor activation leads to the generation of an IP3-mediated increase in intracellular Ca^2+, which can be measured at the single-cell level with high sensitivity and good temporal resolution using the dye FURA-2 and radiofluorometric imaging.
A construct with the TM II–VII region from the β2-adrenergic receptor inserted in the pCMV-Rho/M4NC vector (Rho/M4NC-β2 TM II–VII) was co-transfected with Gα15,16 into HEK-293 cells. […] Images of fluorescent cells were obtained on a Zeiss 510 confocal microscope with excitation at 488 nm.
These transfected cells were then tested for their ability to functionally respond to ligand-receptor binding. The ligand, the adrenergic agonist isoproterenol, was “bath” applied to the transfected cells and single cell Ca^2+-imaging was performed. Cells were pre-loaded with the Ca^2+-sensitive fluorescent dye FURA-2 AM (Molecular Probes) by bathing in serum-free DMEM containing 4 μM of the membrane permeant chemical for 1 hr at 37° C., then washed with a standard bath solution (130 mM NaCl, 2 mM CaCl2, 5 mM KCl, 10 mM glucose, 10 mM Na.HEPES/pH 7.4 at room temperature). […] Acetylcholine was applied at the end of each experiment at 10 μM for 15–20 seconds. […] At 5-second intervals, the cells were sequentially illuminated for less than 100 ms, first at 340 nm and then at 380 nm. Fluorescence emission at 510 nm was monitored for each excitation wavelength via an intensified CCD camera. Averaged pixel intensities within 40 to 100 regions of interest, corresponding to 40 to 100 individual cells, were digitized and stored on a computer. Attofluor-Ratiovision software (Atto Instruments) was used to determine the Ca^2+-dependent fluorescence signal expressed as the F340/F380 ratio.

[4] = system: Rho/M4NC-ratI7 TM II–VII chimeric receptor; assay: Ca2+ imaging, HEK-293 cells co-expressing Rho/M4NC-ratI7 TM II–VII chimeric construct and Gα15,16; assay type: cell-based, rat; details: for relative Ca2+ response, octanal vs heptanal: identical experiments to mouse I7 chimera
Experimental: HEK-293 cells (obtained from the ATCC) were grown in DMEM supplemented with 10% fetal bovine serum, penicillin (100 U/ml), streptomycin (100 μg/ml) and L-glutamine (2 mM) in 5% CO2. Before transfection, the cells were seeded onto poly-L-lysine-coated 10.5×35×0.17 mm glass coverslips (Bellco) placed in the 60 mm culture dishes. Calcium phosphate-mediated transfections were performed in a 60 mm dish with 3 to 4 μg of receptor construct DNA, 1 μg of pCIS Gα 15 and Gα16 expression vector (Offermanns (1995) supra). 2 μg of pBluescript carrier DNA, and 0.3 μg of pRSV-T antigen expression vector (Gorman (1990) DNA and Protein Eng. Tech. 2:3–9). After 5 to 7 hr incubation, the cells were washed once with PBS containing 0.5 mM EDTA and 10% DMSO, then with PBS before continuing growth in regular media for 40–50 hr.
Efficient screening of expressed olfactory receptors with a large number of ligands by functional analysis requires a robust and sensitive assay system. Although the established role of cAMP in olfactory signaling offers a biochemical approach involving measurement of cAMP production in response to odorant stimulation, an alternative, rapid assay is to co-express the cloned olfactory receptors with G protein Gα15,16 subunits (see, e.g., Offermanns (1995) J. Biol. Chem. 270:15175–15180), which can promiscuously couple 7-transmembrane domain receptors that normally signal through other second messengers to the PIP2 pathway. In this reporter system, (olfactory) receptor activation leads to the generation of an IP3-mediated increase in intracellular Ca^2+, which can be measured at the single-cell level with high sensitivity and good temporal resolution using the dye FURA-2 and radiofluorometric imaging. These attributes were able to compensate for the low transfection efficiency in transient expression systems that would hinder more traditional biochemical assays.
These transfected cells were then tested for their ability to functionally respond to ligand-receptor binding. The ligand, the adrenergic agonist isoproterenol, was “bath” applied to the transfected cells and single cell Ca^2+-imaging was performed. Cells were pre-loaded with the Ca^2+-sensitive fluorescent dye FURA-2 AM (Molecular Probes) by bathing in serum-free DMEM containing 4 μM of the membrane permeant chemical for 1 hr at 37° C., then washed with a standard bath solution (130 mM NaCl, 2 mM CaCl2, 5 mM KCl, 10 mM glucose, 10 mM Na.HEPES/pH 7.4 at room temperature). For each experiment, a glass coverslip with FURA-2 loaded HEK 293 cells was introduced into an open-topped, longitudinal microperfusion chamber (300 μl bath volume mounted on a Zeiss Axiovert 135 microscope equipped with an F Fluar 40×/1.30 oil-immersion lens. The cells were superfused with test solutions typically for 30 to 40 seconds (5 ml/application) and washed out with 5 ml of bath solution at the end of each application. Each test solution was freshly diluted and manually applied with a micropipette into the chamber. Because of this manual procedure, there could be several seconds of delay in actual application from electronic tick marks used to define the beginning of application in each graph. At the same time, the solution flow might not be completely laminar. In most cases, the onset of Ca2+ rise in response to a specific solution occurred within 15 seconds of the beginning of solution application, though longer delays were sometimes observed. Acetylcholine was applied at the end of each experiment at 10 μM for 15–20 seconds. Ratiometric Ca^2+ measurements were performed as described by Grynkiewicz (1985) 260:3440–3450, with modifications using the Zeiss/Attofluor-Ratiovision imaging system. At 5-second intervals, the cells were sequentially illuminated for less than 100 ms, first at 340 nm and then at 380 nm. Fluorescence emission at 510 nm was monitored for each excitation wavelength via an intensified CCD camera. […]

[5] = system: Rho/M4NC-mouse I7 transmembrane II–VII chimeric receptor; assay: Ca2+ imaging, Rho/M4NC-mouse I7 TM II–VII chimeric receptor in HEK-293 cells; assay type: cell-based; details: 10 μM
[6] = target: T3, full-length mouse I7 receptor, residue 206 valine/isoleucine substitution (Mus musculus, UniProt Q9QWU6, I206V); assay: Ca2+ imaging, full-length mouse I7 receptor with valine/isoleucine substitution at residue 206; assay type: cell-based; details: heptanal vs octanal
T3 construct: expressed in transfected cells; not repeated
T3 sequence (Q9QWU6 1-327 I206V): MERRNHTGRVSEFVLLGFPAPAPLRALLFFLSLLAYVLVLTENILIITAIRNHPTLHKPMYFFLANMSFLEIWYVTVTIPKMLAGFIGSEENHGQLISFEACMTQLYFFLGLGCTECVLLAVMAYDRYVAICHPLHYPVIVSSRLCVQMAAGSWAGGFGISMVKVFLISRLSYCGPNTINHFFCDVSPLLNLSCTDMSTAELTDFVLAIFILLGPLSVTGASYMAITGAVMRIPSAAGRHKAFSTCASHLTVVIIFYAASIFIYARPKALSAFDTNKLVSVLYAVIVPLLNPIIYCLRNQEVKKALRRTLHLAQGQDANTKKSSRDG

| Structure (SMILES) | intracellular Ca2+ response ([1]; 30 μM) | ligand preference [2] | intracellular Ca2+ response (FURA-2 F340/F380) [3] | intracellular Ca2+ response ([4]; 10 μM) | intracellular Ca2+ response ([4]; 30 μM) | relative Ca2+ response, octanal vs heptanal [4] | intracellular Ca2+ response [5] | intracellular Ca2+ response ([1]; 1 μM) | ligand preference [6] | Ca2+ response to a second application ([4]; second application, even at 30 μM (desensitization)) | dependence of the Ca2+ response on Gα15,16 ([4]; with vs without Gα15,16) |
| --- | --- | --- | --- | --- | --- | --- | --- | --- | --- | --- | --- |
| CCCCCCC=O [heptanal] | small response | preferentially recognize heptanal | no effect | not 10 μM | responded to 30 μM | responded better to octanal than to heptanal | responded only to heptanal |  |  |  |  |
| CCCCCCCC=O [octanal] |  |  | no effect | Ca^2+ transient was observed |  | responded better to octanal than to heptanal |  | responded | preferentially recognize octanal | little or no effect | required the presence of Gα15,16 |
